The record followed here is patent US20220062258A1, “Heterocyclic derivatives” (Merck Patent GmbH, priority 2019, published 2022).

pIC50: −log10 of the molar value.

For assay [1], the system named is HUVEC primary endothelial cells. The assay can be described thus: HUVEC proliferation assay (CyQUANT Direct). Format: cell-based. The settings on record: Homo sapiens, 72 h, 3 days incubation. The method, boiled down:
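Pooled primary HUVECs (≤4 passages) seeded 6 h before compound, then exposed 3 days at 37 °C, 5% CO2. Cell number read as DNA content by CyQUANT Direct fluorescence (ex 480/em 535 nm). IC50 from 10-point dose response.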

In another assay the target is MetAP-2 (Homo sapiens, UniProt P50579). The assay can be described thus: Biochemical activity testing of MetAP-2 (enzyme-coupled assay, Met-Ala-Ser substrate). The arrangement: N-terminal His tag human rec MetAP2 (prepared in house, AA 2-478, final concentration (fc) 123 nM); His tag (N); TEV cleavage site (N); made in house. On the procedure: Biochemical Activity Testing of MetAP-2
MetAP-2 activity was determined by an enzyme-coupled assay using the tripeptide Met-Ala-Ser (MAS) as substrate and recombinant human MetAP-2 (His-Tev-MetAP-2, prepared at Merck). The released methionine is converted by L-amino acid oxidase (AAO) to oxidized Methionine and hydrogen peroxide is released. In a second step horse radish peroxidase catalyzes the oxidation of the leuko dye dianisidine to oxidized dianisidine using hydrogen peroxide as co-substrate. The produced dianisidine ox was detected photometrically as increase in absorbance at 450 nm. Met-AP2 activity was determined in a kinetic measurement mode. The release of one molecule methionine corresponds to the production of one molecule dianisidine ox. The MetAP2 enzymatic activity is directly corresponding to the increase in absorbance per time.
In detail, the assay was performed in 384 well microtiter plate (Greiner 78110 MTP, transparent) in a total reaction volume of 50 μl at 22° C. 0.35 μg of N-terminal His tag human rec MetAP2 (prepared in house, AA 2-478, final concentration (fc) 123 nM), 1 unit horse radish Peroxidase (Roche, Mannheim), 0.02 unit L-amino acid oxidase (Merck, Darmstadt), 0.6 mM dianisidine (Merck, Darmstadt, dissolved in 50 mM HCl, 10% DMSO) were incubated in the absence or presence of the test compound (10 dilution concentrations) in 100 mM Hepes, 50 mM NaCl, 50 μM MnCl2 at pH 7.0 for 15 min at 22° C. The reaction was started by the addition of 500 μM (fc) MAS peptide (Merck, Darmstadt). After mixing the first absorbance measurement was performed on an Envision multimode reader (Perkin-Elmer, Waltham) at wavelength of 450 nm. The reaction was incubated at 22° C. for additional 45 min and the second absorbance measurement was performed. The increase of absorbance per time was determined. The control value used was the inhibitor-free reaction with 0.5% DMSO (fc). As pharmacological inhibitor control Fumagillin (Merck, Darmstadt) in a final concentration of 5 μM was used. The inhibitory values (IC50) were determined using the program ASSAY ANALYZER® from GeneData (Basel, Switzerland).

Sequence of MetAP-2 (P50579 2-478): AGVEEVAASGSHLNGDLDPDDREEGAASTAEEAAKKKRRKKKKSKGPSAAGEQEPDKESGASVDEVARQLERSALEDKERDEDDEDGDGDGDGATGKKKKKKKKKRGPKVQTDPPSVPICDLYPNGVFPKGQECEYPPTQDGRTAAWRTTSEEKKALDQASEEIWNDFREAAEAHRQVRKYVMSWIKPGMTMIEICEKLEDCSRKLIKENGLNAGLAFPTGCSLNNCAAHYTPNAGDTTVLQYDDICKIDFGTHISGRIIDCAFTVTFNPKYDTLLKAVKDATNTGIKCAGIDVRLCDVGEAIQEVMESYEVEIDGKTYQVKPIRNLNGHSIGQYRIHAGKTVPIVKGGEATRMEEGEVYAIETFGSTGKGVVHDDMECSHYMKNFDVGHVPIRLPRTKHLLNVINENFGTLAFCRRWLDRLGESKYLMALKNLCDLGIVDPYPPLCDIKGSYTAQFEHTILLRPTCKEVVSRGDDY

For `O=C1CCC(N2C(=O)c3cccc(NCCOCCOCCOCCOCCOCCNC(=O)c4cc5cc(N6CCC(O)(C(=O)NCc7cc(F)cc(F)c7)C6=O)ccc5[nH]4)c3C2=O)C(=O)N1` (stereo not shown) [Compound A1, 5-[3-[(3,5-difluorophenyl)methylcarbamoyl]-3-hydroxy-2-oxo-pyrrolidin-1-yl]-N-[2-[2-[2-[2-[2-[2-[[2-(2,6-dioxo-3-piperidyl)-1,3-dioxo-isoindolin-4-yl]amino]ethoxy]ethoxy]ethoxy]ethoxy]ethoxy]ethyl]-1H-indole-2-carboxamide], the pIC50 (as a rule, the negative decadic logarithm of the IC50, by convention in mol/L) in assay [1] was 4.60; on MetAP-2, 6.72.
In the same order, the values of `O=C1CCC(N2C(=O)c3ccc(NCCOCCOCCOCCOCCNC(=O)c4cc5cc(N6CCC(O)(C(=O)NCc7cc(F)cc(F)c7)C6=O)ccc5[nH]4)cc3C2=O)C(=O)N1` (stereo not shown) [Compound A2, 5-[3-[(3,5-difluorophenyl)methylcarbamoyl]-3-hydroxy-2-oxo-pyrrolidin-1-yl]-N-[2-[2-[2-[2-[2-[[2-(2,6-dioxo-3-piperidyl)-1,3-dioxo-isoindolin-5-yl]amino]-ethoxy]ethoxy]ethoxy]ethoxy]ethyl]-1H-indole-2-carboxamide] are 4.52 and 6.60.
